One assay addresses T1, cyclin D2-Cdk4 (Homo sapiens, UniProt P11802).
T1 construct: made in house; host or cells: insect cell Sf9 (baculovirus)
The experiment in a line: Cdk4 inhibitory action: cyclin D2-Cdk4 kinase activity, 33P-ATP, RB peptide substrate. It is filed as biochemical. Particulars: cyclin D2-Cdk4, 50 μM ATP. From the text:
First, the cDNA of Cdk4, and the cDNA of a fusion protein of cyclin D2, an activating factor of Cdk4, and glutathione S-transferase, were integrated into a baculovirus expression vector to prepare a recombinant baculovirus. This was co-transfected into insect cell Sf9 to express an active complex of the cyclin D2/glutathione S-transferase fusion protein-Cdk4 at a high level. The cells were recovered and solubilized, then the active complex was adsorbed onto Glutathione Sepharose, and a cyclin D2-Cdk4 complex was recovered using Precision Protease and was purified by HPLC column chromatography [EMBO J., Vol. 15, 7060-7069 (1996)].
For the measurement of the activity of cyclin D2-Cdk4, a synthetic peptide (Arg-Pro-Pro-Thr-Leu-Ser-Pro-Ile-Pro-His-Ile-Pro-Arg) corresponding to amino acid residue No. 775-787 of RB protein was used as the substrate [EMBO J., Vol. 15, 7060-7069 (1996)].
The reaction was performed by partially modifying the method of Kitagawa et al. [Oncogene, Vol. 7, 1067-1074 (1992)]. The volume of the reaction solution was 21.1 μL, and the composition of the reaction buffer (R buffer) was 20 mM Tris-hydrochloric acid buffer (pH 7.4)/10 mM magnesium chloride/4.5 mM 2-mercaptoethanol/1 mM ethylene glycol bis(β-aminoethyl ether)-N,N,N′,N′-tetraacetic acid (EGTA). To this reaction buffer, purified cyclin D2-Cdk4, 100 μM of the substrate peptide, 50 μM of non-labeled adenosine triphosphate (ATP), and 1 μCi of [γ-33P]-labeled ATP (2000 to 4000 Ci/mmole) were added to react at 30° C. for 45 minutes. Then, 10 μL of 350 mM phosphate buffer was added to the reaction system to terminate the reaction. The substrate peptide was adsorbed onto P81 paper filter on a 96-well plate, and then washed several times with 75 mM phosphate buffer. The radioactivity of the substrate peptide was measured with a liquid scintillation counter. The [γ-33P]-labeled ATP was purchased from Daiichi Pure Chemicals Co., Ltd.
Addition of the test compound to the reaction system was carried out by first preparing a dilution series of solutions of the compound in dimethylsulfoxide (DMSO), and adding 1.1 μL of the dilutions. A control was provided by adding 1.1 μL of DMSO to the reaction system.
A representative compound of the compounds according to the invention was selected, and the IC50 value of this compound for the cyclin D2-Cdk4 activity was determined.

For a further assay, the target named is T2, cyclin H-Cdk7 (Homo sapiens, UniProt P50613).
T2 construct: made in house; host or cells: insect cell Sf9 (baculovirus)
In words: Cdk7 inhibitory action: cyclin H-Cdk7 kinase activity. It is filed as biochemical. Particulars: cyclin H-Cdk7, 50 μM ATP. The source says:
The cDNA of Cdk7, and the cDNA of a fusion protein of cyclin H, an activating factor of Cdk7, and glutathione S-transferase, were integrated into a baculovirus expression vector to prepare a recombinant baculovirus. This was co-transfected into insect cell Sf9 to express an active complex of the cyclin H/glutathione S-transferase fusion protein-Cdk7 at a high level. The cells were recovered and solubilized, then the active complex was adsorbed onto Glutathione Sepharose, and a cyclin H-Cdk7 active complex was recovered using Precision Protease.
For the measurement of the activity of cyclin H-Cdk7, a synthetic peptide ([…] was used as the substrate.
(§1) The reaction was performed by partially modifying the method of Kitagawa et al. [Oncogene, Vol. 7, 1067-1074 (1992)]. The volume of the reaction solution was 21.1 μL, and to the R buffer, purified cyclin H-Cdk7, 25 μM of the substrate peptide, 50 μM of non-labeled adenosine triphosphate (ATP), and 1 μCi of [γ-33P]-labeled ATP (2000 to 4000 Ci/mmole) were added to react at 30° C. for 45 minutes. Then, 10 μL of 350 mM phosphate buffer was added to the reaction system to terminate the reaction. The substrate peptide was adsorbed onto P81 paper filter on a 96-well plate, and then washed several times with 75 mM phosphate buffer. The radioactivity of the substrate peptide was measured with a liquid scintillation counter.
Addition of the compound according to the invention to the reaction system was carried out by first preparing a dilution series of solutions of the compound in dimethylsulfoxide (DMSO), and adding 1.1 μL of the dilutions. A control was provided by adding 1.1 μL of DMSO to the reaction system.
A representative compound of the compounds according to the invention was selected, and the IC50 value of this compound for the cyclin H-Cdk7 activity was determined.

Another assay deals with T3, cyclin T1-Cdk9 (Homo sapiens, UniProt P50750).
T3 construct: made in house; host or cells: insect cell Sf9 (baculovirus)
In words: Cdk9 inhibitory action: cyclin T1-Cdk9 kinase activity. It is filed as biochemical. Particulars: cyclin T1-Cdk9, 50 μM ATP.
Excerpt: The cDNA of Cdk9, and the cDNA of a fusion protein of cyclin T1, an activating factor of Cdk9, and glutathione S-transferase, were integrated into a baculovirus expression vector to prepare a recombinant baculovirus. This was co-transfected into insect cell Sf9 to express an active complex of the cyclin T1/glutathione S-transferase fusion protein-Cdk9 at a high level. The cells were recovered and solubilized, and the active complex was adsorbed onto Glutathione Sepharose, and then was purified by elution with 10 mM reductive glutathione. The solution containing the eluted active complex was dialyzed against B buffer (composition: 20 mM Tris-hydrochloric acid buffer (pH 7.4)/200 mM sodium chloride/0.1% Tween-20/10 mM 2-mercaptoethanol/1 mM dithiothreitol/10% glycerol) to remove the reductive glutathione.
For the measurement of the activity of cyclin T1-Cdk9, a synthetic peptide ([…] was used as the substrate.
as §1, with “cyclin T1-Cdk9,” for “cyclin H-Cdk7,”, “and 0.5” for “and 1”, “for 20” for “for 45”
Addition of the compound according to the invention to the reaction system was carried out by first preparing a dilution series of solutions of the compound in dimethylsulfoxide (DMSO), and adding […] of the dilutions. A control was provided by adding 1.1 μL of DMSO to the reaction system.
A representative compound of the compounds according to the invention was selected, and the IC50 value (nM) of this compound for the cyclin T1-Cdk9 activity was determined.

For another assay, the system named is JURKAT. The experiment in a line: Inhibitory action against cell proliferation (WST-8), JURKAT. Format: cell-based. Particulars: Homo sapiens, 72 h, Jurkat cells, 3 days culture, read-out: concentration for 50% inhibition of cell proliferation (IC50), Jurkat. On the procedure:
Clinically isolated cancer cell lines EOL-1, KU812 and JURKAT were cultured in RPMI1640 medium containing 10% fetal calf serum at 37° C. in the presence of 5% CO2 under an atmosphere of saturated steam.
The inhibitory action against cell proliferation was measured by modifying the method of Skehan et al. [J. Natl. Cancer Inst., Vo. 82, 1107-1112 (1990)] according to the method of Ishiyama et al. [Talanta, Vol. 44, 1299 (1997)]. 100 μL each of cell culture medium containing 1×10^3 live cells of EOL-1, KU812 and JURKAT, respectively, was dispensed into each well of a 96-well cell culture dish, and the cells were cultured overnight. On the next day, a dilution series of solutions in DMSO was prepared from a DMSO solution of the compound of each Example. Then, the dilution series of solutions or DMSO only as a control for no drug addition were separately added to the medium for cell culture. Finally, 100 μL each of the culture medium containing either the dilution series of solutions of the compounds or DMSO only, was added to the cells which had been cultured in a 96-well dish, and then the cells were further cultured for 3 days.
After adding 20 μL each of WST-8 (Kishida Chemical Co., Ltd.) to each well and culturing the cells for another 2 hours, the optical densities at 450 nm were measured against a reference wavelength of 650 nm, and were compared with the control group. The results obtained by determining the concentrations for 50% inhibition of cell proliferation (IC50 (nM)) of the compounds of Examples are presented in the following Table 4.
Background: Tetrazolium dyes change colour on reduction, which living cells bring about.

T1 sequence (P11802 whole entry): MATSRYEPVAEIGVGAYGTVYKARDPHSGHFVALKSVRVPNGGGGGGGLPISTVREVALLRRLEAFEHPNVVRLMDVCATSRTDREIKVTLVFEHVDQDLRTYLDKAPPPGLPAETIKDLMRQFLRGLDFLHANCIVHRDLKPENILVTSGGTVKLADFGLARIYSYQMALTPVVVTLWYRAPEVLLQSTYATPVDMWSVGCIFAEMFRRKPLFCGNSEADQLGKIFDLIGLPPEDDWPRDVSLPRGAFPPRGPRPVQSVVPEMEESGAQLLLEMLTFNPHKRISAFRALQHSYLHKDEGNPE
T1 sequence (P30279 whole entry partner): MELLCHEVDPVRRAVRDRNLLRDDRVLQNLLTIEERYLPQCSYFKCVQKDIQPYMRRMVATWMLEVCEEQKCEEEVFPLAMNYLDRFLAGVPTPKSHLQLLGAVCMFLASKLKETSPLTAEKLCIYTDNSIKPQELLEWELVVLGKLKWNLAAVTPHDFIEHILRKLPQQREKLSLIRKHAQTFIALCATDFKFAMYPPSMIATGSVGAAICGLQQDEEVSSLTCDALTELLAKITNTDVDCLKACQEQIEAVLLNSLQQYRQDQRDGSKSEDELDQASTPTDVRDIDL
T2 sequence (P50613 whole entry): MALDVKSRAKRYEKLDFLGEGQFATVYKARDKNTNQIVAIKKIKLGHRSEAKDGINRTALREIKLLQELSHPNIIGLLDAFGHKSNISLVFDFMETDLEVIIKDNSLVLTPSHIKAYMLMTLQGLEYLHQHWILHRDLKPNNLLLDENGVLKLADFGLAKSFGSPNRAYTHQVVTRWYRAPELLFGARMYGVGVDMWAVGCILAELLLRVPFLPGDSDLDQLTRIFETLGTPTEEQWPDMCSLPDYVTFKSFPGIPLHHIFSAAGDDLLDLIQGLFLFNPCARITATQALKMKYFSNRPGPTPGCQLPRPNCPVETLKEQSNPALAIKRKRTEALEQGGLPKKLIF
T2 sequence (P51946 whole entry partner): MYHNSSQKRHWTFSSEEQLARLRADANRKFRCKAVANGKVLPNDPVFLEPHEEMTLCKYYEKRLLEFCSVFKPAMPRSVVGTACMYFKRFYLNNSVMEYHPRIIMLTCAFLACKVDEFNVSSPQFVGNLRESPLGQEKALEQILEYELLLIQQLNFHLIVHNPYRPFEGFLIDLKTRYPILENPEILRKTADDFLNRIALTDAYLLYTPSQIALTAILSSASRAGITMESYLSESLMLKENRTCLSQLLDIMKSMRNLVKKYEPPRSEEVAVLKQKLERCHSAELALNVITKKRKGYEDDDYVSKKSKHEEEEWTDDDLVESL
T3 sequence (P50750 whole entry): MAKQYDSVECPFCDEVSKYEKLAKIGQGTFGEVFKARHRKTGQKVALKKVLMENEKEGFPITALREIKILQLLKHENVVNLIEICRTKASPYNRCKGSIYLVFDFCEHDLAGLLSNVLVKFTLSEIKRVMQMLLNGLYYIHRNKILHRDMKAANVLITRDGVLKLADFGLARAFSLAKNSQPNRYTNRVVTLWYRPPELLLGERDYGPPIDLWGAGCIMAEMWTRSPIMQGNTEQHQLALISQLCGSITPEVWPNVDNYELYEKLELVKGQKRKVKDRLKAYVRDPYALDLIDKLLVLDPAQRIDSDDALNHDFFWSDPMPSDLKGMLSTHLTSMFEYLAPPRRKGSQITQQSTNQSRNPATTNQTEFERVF
T3 sequence (O60563 whole entry partner): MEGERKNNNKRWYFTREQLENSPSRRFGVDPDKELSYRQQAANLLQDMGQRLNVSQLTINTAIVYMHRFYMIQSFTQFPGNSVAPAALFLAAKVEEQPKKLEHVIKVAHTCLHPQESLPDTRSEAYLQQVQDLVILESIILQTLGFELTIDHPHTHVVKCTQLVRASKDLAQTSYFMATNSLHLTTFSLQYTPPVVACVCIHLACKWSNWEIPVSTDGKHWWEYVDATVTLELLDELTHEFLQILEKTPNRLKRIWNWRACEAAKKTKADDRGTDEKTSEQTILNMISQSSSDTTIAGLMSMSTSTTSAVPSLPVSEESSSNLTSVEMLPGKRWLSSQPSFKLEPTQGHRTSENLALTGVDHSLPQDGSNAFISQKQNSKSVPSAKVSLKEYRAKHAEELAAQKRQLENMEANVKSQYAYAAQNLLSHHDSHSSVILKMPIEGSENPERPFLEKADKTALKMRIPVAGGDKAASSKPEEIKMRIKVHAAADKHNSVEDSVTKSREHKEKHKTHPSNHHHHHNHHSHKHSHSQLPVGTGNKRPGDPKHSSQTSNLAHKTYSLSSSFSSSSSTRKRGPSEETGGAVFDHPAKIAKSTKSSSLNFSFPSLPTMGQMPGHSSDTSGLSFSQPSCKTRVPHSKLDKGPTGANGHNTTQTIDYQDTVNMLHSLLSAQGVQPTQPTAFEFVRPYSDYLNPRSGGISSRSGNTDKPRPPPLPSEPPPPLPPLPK

With `Cc1cc(-c2cnc(Nc3cnc(CN4CCCC4)cn3)s2)nc(Sc2ccccc2Cl)n1` [Example 113, 5-[2-(2-chlorophenylthio)-6-methyl-4-pyrimidinyl]-2-[5-(1-pyrrolidinyl)methyl-2-pyrazinyl]amino-1,3-thiazole], the IC50 stood at 13 nM against cyclin D2-Cdk4, 560 nM at cyclin H-Cdk7, 880 nM against cyclin T1-Cdk9 and 72 nM in the assay with JURKAT.

With `CCNCc1cnc(Nc2ncc(-c3cc(C)nc(Sc4ccccc4Cl)n3)s2)cn1` [Example 105, 5-[2-(2-chlorophenylthio)-6-methyl-4-pyrimidinyl]-2-[5-(ethylamino)methyl-2-pyrazinyl]amino-1,3-thiazole], the IC50 against cyclin D2-Cdk4 came out at 5.3 nM; at cyclin H-Cdk7 it was 370 nM; at cyclin T1-Cdk9, 180 nM.

For `CCNCc1cnc(Nc2ncc(-c3cc(C)nc(NC4CCCCC4)n3)s2)cn1` [Example 52, 5-[2-(cyclohexylamino)-6-methyl-4-pyrimidinyl]-2-[5-(ethylamino)methyl-2-pyrazinyl]amino-1,3-thiazole], the IC50 was 5.5 nM against cyclin D2-Cdk4, 210 nM against cyclin H-Cdk7, 330 nM against cyclin T1-Cdk9 and 160 nM with JURKAT.

Turning to `Cc1cc(-c2cnc(Nc3cnc(CNC(C)C)cn3)s2)nc(Sc2ccccc2Cl)n1` [Example 106, 5-[2-(2-chlorophenylthio)-6-methyl-4-pyrimidinyl]-2-[5-(isopropylamino)methyl-2-pyrazinyl]amino-1,3-thiazole], the IC50 on cyclin D2-Cdk4 was found to be 8.4 nM; at cyclin H-Cdk7 it was 560 nM; on cyclin T1-Cdk9, 310 nM; in the assay with JURKAT, 63 nM.

As to `CNCc1cnc(Nc2ncc(-c3cc(C)nc(Sc4ccccc4Cl)n3)s2)cn1` [Example 107], the IC50 against cyclin D2-Cdk4 was 8.8 nM; on cyclin H-Cdk7, 830 nM; on cyclin T1-Cdk9, 250 nM; with JURKAT it was 63 nM.

`Cc1cc(-c2cnc(Nc3cnc(CN4CCC[C@H]4CO)cn3)s2)nc(Sc2ccccc2Cl)n1` [Example 110, (2S)-5-[2-(2-chlorophenylthio)-6-methyl-4-pyrimidinyl]-2-[5-(2-hydroxymethyl-1-pyrrolidinyl)methyl-2-pyrazinyl]amino-1,3-thiazole]: the IC50 on cyclin D2-Cdk4 was found to be 10 nM; on cyclin H-Cdk7 it was 490 nM; against cyclin T1-Cdk9, 320 nM; with JURKAT, 73 nM.

Regarding `Cc1cc(-c2cnc(Nc3cnc(CN4CC[C@@H](O)C4)cn3)s2)nc(Sc2ccccc2Cl)n1` [Example 118, (3R)-5-[2-(2-chlorophenylthio)-6-methyl-4-pyrimidinyl]-2-[5-(3-hydroxy-1-pyrrolidinyl)methyl-2-pyrazinyl]amino-1,3-thiazole], the IC50 at cyclin D2-Cdk4 is 20 nM; against cyclin H-Cdk7, 990 nM; against cyclin T1-Cdk9 it was 980 nM; with JURKAT, 90 nM.

`Cc1cc(-c2cnc(Nc3cnc(CN(C)CCO)cn3)s2)nc(Sc2ccccc2Cl)n1` [Example 114, 5-[2-(2-chlorophenylthio)-6-methyl-4-pyrimidinyl]-2-{5-[(2-hydroxyethyl)methylamino]methyl-2-pyrazinyl}amino-1,3-thiazole]: the IC50 on cyclin D2-Cdk4 was determined as 13 nM; against cyclin H-Cdk7, 780 nM; at cyclin T1-Cdk9 it was 1600 nM; in the assay with JURKAT, 83 nM.

These data come from US7709475B2, “Selective inhibitors against Cdk4 and Cdk6 having aminothiazole skeleton” (Banyu Pharmaceutical Co., Ltd., priority 2004, dated 2010).
